Reference: patent US20230286934A1, “Use of Multi-Kinase Inhibitors to Treat RNA Virus Infections” (priority 2020, published 2023)
Read-outs that look alike come from different tables or passages of the source.

What was measured:
[1] = tested on: SARS-CoV-2; experiment: microbe, parasite or virus in culture; type: cell-based; conditions: for IC50: read-out: IC50 of inhibition of the replication of SARS-CoV-2
[2] = tested on: SARS-CoV2 WA-2020 strain; type: cell-based; conditions: Vero E6, 40,000 cells/well, MOI 0.01, 72 hours
[3] = tested on: SARS-CoV2 WA-2020 strain; type: cell-based; conditions: Vero E6, 40,000 cells/well, MOI 0.01, 72 hours supernatant
[4] = tested on: SARS-CoV2 WA-2020 strain; type: cell-based; conditions: Vero E6, 2000 cells/well, MOI 0.05, 72 hours
[5] = tested on: Vero E6 cells; conditions: MTT assay, uninfected Vero E6 cells, same compound dilutions
[6] = Severe acute respiratory syndrome coronavirus 2, Vero C1008, 48 h

CCN(CCO)CCCC(C)Nc1ccnc2cc(Cl)ccc12 (stereo not drawn) [Hydroxy-Chloroquine]
IC50 [1, 6]: 0.733 µM

CN1CCN(c2ccc(Nc3ncc4cc(C#N)c(=O)n(C5CCCC5)c4n3)cc2)CC1 [ON123300]
effect on viral replication ([1]; Vero E6 cells, negative control, data not shown): no effect on viral replication

CCC(CC)COC(=O)[C@H](C)N[P@](=O)(OC[C@H]1O[C@@](C#N)(c2ccc3c(N)ncnn23)[C@H](O)[C@@H]1O)Oc1ccccc1 [Remdesivir]
IC50 [1, 6]: 0.826 µM

O=C1Nc2cc(S(=O)(=O)Cc3c(Cl)cccc3Cl)ccc2S/C1=C\c1ccc(O)c([N+](=O)[O-])c1 [compound 108600]
IC50 ([1]; Vero E6 cells, 2,000 cells/well, MOI 0.025, 48 h, percent infected cells (NP immunostain)): 0.013 µM
fold more effective/active than Remdesivir (IC50, SARS-CoV-2 replication) ([1]; Vero E6 cells, relative to Remdesivir): approximately 63 fold
release of NP protein from infected cells into the medium [2]: inhibition was noted only with 10 µM concentration
infectious titer of released virus (plaque assay) [3]: correlated to the infectious titers
release of NP protein / virus from infected cells [4]: inhibited SARS-CoV-2 infection of Vero cells in a dose dependent manner
effect on the viability of Vero E6 cells [5]: little or no effect
